Where “and” joins values, the source holds several entries; their conditions need not be identical. Identical values can stand only once. Marks after values point to notes of the source that are not given here.
How the values were obtained:
[1] = Osmolality of API formulations (micro osmometer, triplicate); assay type: physicochemical
Protocol: Osmolality readings were obtained on an Advanced Instruments Advanced™ Micro Osmometer Model 3300 (Advanced Instruments, Inc. Norwood, MA, USA). Saline solutions (0.9% and 3%) were run as positive controls. Each sample was calculated as the mean from back-to-back triplicate measurements. When replicate batches were measured, data was reported as mean±SEM.
The procedure was performed on a 2 mL scale. […] Benzethonium chloride (20 μL of a 1% solution, 0.01% final concentration) was added via micropipette. The pH was adjusted to ˜7.00 with 2M sodium hydroxide, or either 1M or 2M HCl in some cases, and then the mixture was transferred to a 2 mL volumetric flask to be diluted with HPLC grade water. […]
Method 1: In a 5 mL borosilicate glass test tube which contained a Teflon-coated magnetic stir bar, Captisol®-Na+ ([…], H+ equivalents, moisture corrected) was dissolved in HPLC grade water (1.6-1.7 mL), API salt (HCl in most cases) (70 mg/mL FB equivalents) was added and the mixture was stirred until a homogenous transparent solution formed. Benzethonium chloride (20 μL of a 1% solution, giving a 0.01% final concentration) was added via micropipette. The pH was adjusted to ˜7.00 with 1M or 2M sodium hydroxide, or either 1M or 2M HCl in some cases, and then the mixture was transferred to a 2 mL volumetric flask to be diluted with HPLC grade water. […]
Benzethonium chloride (20 μL of a 1% solution, giving a 0.01% final concentration) was added via micropipette. The pH was adjusted to ˜7.00 with 1M or 2M sodium hydroxide, or either 1M or 2M HCl in some cases, and then the mixture transferred to a 2 mL volumetric flask to be diluted with HPLC grade water. […]
The solution was transferred to a 2 mL volumetric flask and diluted to the target volume with HPLC grade water. […]

[2] = pH of API formulations (pH meter); assay type: physicochemical
[3] = Reported solubility in water of APIs (freebase and salt); assay type: physicochemical
Protocol: Table 5 lists the solubility and pKa values of the various APIs described above.
A challenge was that reliable solubility data for certain APIs was difficult to locate (especially for the freebase forms). As such in a number of instances only predicted values could be located and in the case of rimantidine HCl this value was inconsistent with our empirical results. Likewise, the drugbank predicted value for tigecycline was 0.01455 mg/mL, whereas a literature value was 0.45 mg/mL. The solubility of a range of poor to moderately to highly soluble APIs as freebases as well as common commercial API salt forms will be determined.

[4] = Osmolality of API formulations (micro osmometer, triplicate); assay type: physicochemical; remark: listed apart in the source
[5] = Dissolution of API freebase in aqueous CapAcid / Captisol solutions at defined API:CapAcid ratios, visual inspection and NaOH titration; conditions: water, 70 mg/mL FB; listed as Rimantidine
[6] = Stability of tigecycline FB CapAcid solution on standing; assay type: physicochemical; conditions: 70 mg/mL FB with 1.1 molar equivalents of CapAcid, FIG. 1A
Protocol: The formulation of Tigecycline FB CapAcid was prepared as follows. The preparation procedure for Tigecycline FB CapAcid Formulation was modified from the general procedure. A solution of 70 mg/mL Tigecycline FB (69.9 mg, 0.12 mmol) and 1.1 equivalents of CapAcid, H^+ equivalents, (43.7 mg moisture corrected, 40.8 mg active, 0.02 mmol, 0.13 mmol H^+) was prepared by dissolving CapAcid in 700 μL of HPLC grade water, then adding the freebase and stirring until a homogenous solution formed. Benzethonium chloride (10 μL, 1 mg/mL, 0.01% final concentration) was added to the solution. NaOH (2M) was added until the pH was 7.00±0.01. The solution was diluted to 1 mL and the final pH was determined to be 6.99. […] The solution was filtered through a 0.45 micron syringe filter.

[7] = in water, vendor or literature value; cited from earlier work
[8] = API FB CapAcid formulation, 70 mg/mL API FB, 1.1 equivalents CapAcid (H^+ equivalents), after titration
[9] = CapAcid-API Freebase Formulation (70 mg/mL API FB, 1.1 molar equivalent CapAcid), after pH titration with NaOH or HCl
[10] = 70 mg/mL API FB, 1.1 equivalents CapAcid, before NaOH/HCl

Row | SMILES | osmolality and pH in words ([1]; 70 mg/mL API-Cap formulation) | Osmolality [1, 8] | Osmolality [1, 9] | Osmolality ([1]; Captisol®-Na^+ formulation of API salt, ***20 mg/mL FB equivalents, 1.1 molar equivalent Captisol®-Na^+) | pH of the solution prior to titration ([2]; 20 mg/mL API HCl (FB equivalent), 1.1 equivalents Captisol®-Na^+, before NaOH) | pH of the solution prior to titration [2, 10] | pH ([2]; CapAcid-API Freebase Formulation (70 mg/mL API FB, 1.1 molar equivalent CapAcid), final pH after titration and dilution) | solubility [3] [mg/mL] | Osmolality ([4]; 20 mg/mL API HCl (FB equivalent), 1.1 equivalents Captisol®-Na^+) [mOsmol/kg] | Osmolality ([4]; API Salt in water, ***20 mg/mL FB equivalents) [mOsm/kg] | Successful in a 70 mg/mL API-CapAcid Formulation (Y/N) [5] | Osmolality ([1]; 70 mg/mL API FB and 1 equivalent of 6M HCl in water) [mOsmol/kg] | Osmolality ([1]; 70 mg/mL API FB, 1 equivalent of 6M HCl, 1.1 equivalents Captisol®-Na^+) [mOsmol/kg] | Osmolality ([1]; 70 mg/mL FB, 1.1 equivalents CapAcid, 1 mL scale, recorded the next day after the solution had turned yellow-brown) [mOsmol/kg] | Osmolality ([1]; *70 mg/mL API FB + molar equivalent of 6M HCl in water) | Osmolality ([1]; Captisol®-Na^+ formulation, *70 mg/mL API FB + 6M HCl, 1.1 molar equivalent Captisol®-Na^+) | pH of the solution prior to titration ([2]; 70 mg/mL API FB, 1 equivalent 6M HCl, 1.1 equivalents Captisol®-Na^+, before NaOH/HCl) | stability of the formulation [6] | Reported Freebase Solubility [7] [mg/mL]
1 | CC(N)C12CC3CC(CC(C3)C1)C2 (stereo not shown) [Rimantadine] | isosmotic and PH neutral | 301.7 mOsmol/kg | 301.7 mOsm/kg | 297.3*** mOsm/kg | 4.65 | 1.93 | 6.98 | ~20 | 297.3 | 195.3 | prepared at 70 mg/mL without issue | – | – | – | – | – | – | – | –
2 | CN(C)c1cc(NC(=O)CNC(C)(C)C)c(O)c2c1C[C@H]1C[C@H]3[C@H](N(C)C)C(O)=C(C(N)=O)C(=O)[C@@]3(O)C(O)=C1C2=O [Tigecycline, tigecycline] | – | 99.3 mOsmol/kg and 92.7 mOsmol/kg | 1: 99.3 mOsm/kg and 2: 92.7 mOsm/kg | – | – | 5.19 and 5.37 | – | – | – | – | – | 138.3 | 330.3 | 158.7 | 138.3* mOsm/kg | 330.3* mOsm/kg | 5.61 | degradation after 24 hours | 0.45
